# Assay results published in PubChem BioAssay AID1963422 (Molecular Pharmacology Branch, DTP, NCI, 2024).
# Tested on: 463943-066-T-J2-PDC complex spheroid growth
# Test: Anticancer human tumor 463943-066-T-J2-PDC patient-derived colon adenocarcinoma cell line growth inhibition [Asc]
# Conditions: for IC50: curve of first compound; for viability, T/C: stronger effect = lower value
# Method: Multicellular complex tumor spheroid response to apoptosis pathway targeting inhibitors Alrizomadlin, Pelcitoclax, and Dasminapant in combination with a variety of drugs and investigational agents in selected tumor cell lines
# The MDM2 inhibitor alrizomadlin, the Bcl-2/Bcl-xL inhibitor pelcitoclax, and the IAPs inhibitor dasminapant were evaluated both individually and in combination with standard of care and investigational anticancer small molecules within a complex spheroid model of solid tumors. . Complex spheroids include a stromal component modeled by human endothelial cells (HUVEC) and fibroblasts modeled by human mesenchymal stem cells (MSCs). The concentration ranges selected for each drug and investigational agent were based upon clinically achievable concentrations if the clinical Cmax of the agent was known.
# Compounds. The drugs and investigational agents: alrizomadlin (APG-115; NSC831270), pelcitoclax (APG-1252; NSC835773), dasminapant (APG-1387;NSC834197), TAK-243 (NSC785004), copanlisib (NSC809693), olaparib (NSC753686), talazoparib (NSC767125), cobimetinib (NSC 768068), eltanexor (KPT-8602, NSC 794443), abemaciclib (NSC 768073), sotorasib (NSC818433), adagrasib (NSC 831453), MRTX-1133 (NSC 836407), Iadademestat (ORY1001, NSC 806812), and RMC-4630 (NSC839698), were obtained from the NCI Developmental Therapeutics Program Chemical Repository. The FDA-approved anticancer drug set is available from the Developmental Therapeutics Program at https://dtp.cancer.gov/organization/dscb/obtaining/available plates.htm. […] The stock solutions were prepared in dimethyl sulfoxide (DMSO, Sigma-Aldrich, St. Louis, MO, cat. D2650) at 800-fold the tested concentration and stored at -70 degrees C prior to their use. All drugs and investigational agents were tested over a range starting from a high concentration at or near the clinical Cmax and decreasing in half-log increments. If the clinical Cmax for an agent had not been determined, the highest concentration tested was 10 microM.
# The patient-derived cancer (PDC) cell lines include five colon adenocarcinomas: 186277-243-T-J2-PDC, 616215-338-R-J1-PDC, 439559-082-T-J2-PDC, 463943-066-T-J2-PDC, and 519858-162-T-J1-PDC; three pancreatic carcinomas: 323965-272-R-J2-PDC, 521955-158-R6-J3-PDC, and 521955-158-R2-J5-PDC; two uterine sarcomas: 327498-152-R-J2-PDC and 993429-296-R-J1-PDC; two rhabdomyosarcomas: 755483-174-R-J1-PDC and 772245-204-R-J1-PDC; two soft tissue sarcomas: 126254-015-R-J1-PDC and 494315-158-R-J1-PDC; two malignant fibrous histiocytomas: 317291-083-R-J1-PDC and 596521-263-R-J1-PDC; two breast carcinomas: 171881-019-R-J1-PDC and 885512-296-R-J2-PDC; and one ovarian carcinoma: 6556581-035-R-J-PDC were obtained from the NCI PDMR, (https://pdmr.cancer.gov). The established cell lines HSSY-2 synovial sarcoma (RRID:CVCL 8719), SYO-1 synovial sarcoma (RRID:CVCL_7146), MPNST malignant peripheral neural sheath tumor were obtained from the Sloan Kettering Institute. The following established cell lines were purchased from the American Type Culture Collection (ATCC, Manassas, VA), Sor the received from the NCI repository:, PANC-1 pancreatic carcinoma (CRL-1469, RRID:CVCL_0480), OVCAR-5 ovarian carcinoma (RRID:CVCL_1628), OVCAR-8 ovarian carcinoma (RRID:CVCL_1629), , MCF-7 breast carcinoma (CRL-12584, RRID:CVCL_0031), MDA-MB-231 breast carcinoma (CRL-12532, RRID:CVCL_0062), NCI-H1876 small cell lung carcinoma (CRL-5902, RRID:CVCL_1503), NCI-H510A small cell lung carcinoma (HTB-184, RRID:CVCL_1565), NCI-H1417 (CRL-5869, RRID:CVCL_1469), and NCI-H196 small cell lung carcinoma (CRL-5823, RRID:CVCL_1509). Dr. Peter Houghton (Greehey Children's Cancer Research Institute, University of Texas Health Science Center, San Antonio, TX) provided Rh-18 rhabdomyosarcoma (RRID:CVCL_1659). Pooled donor human umbilical vein endothelial cells (HUVEC, Lonza, cat. CC-2519) and human mesenchymal stem cells (hMSC, Lonza, cat. PT-2501) were purchased from Lonza (Walkersville, MD).
# Cell Culture. […]
# [1] = second compound 0.00949 µM, first compound 0.0316 µM
# [2] = second compound 0.00949 µM, first compound 0.1 µM
# [3] = second compound 0.03 µM, first compound 0.0316 µM
# [4] = second compound 0.03 µM, first compound 0.1 µM
# [5] = second compound 0.0949 µM, first compound 0.0316 µM
# [6] = second compound 0.0949 µM, first compound 0.1 µM
# [7] = second compound 0.3 µM, first compound 0.0316 µM
# [8] = second compound 0.3 µM, first compound 0.1 µM
# [9] = second compound 0.949 µM, first compound 0.0316 µM
# [10] = second compound 0.949 µM, first compound 0.1 µM
# [11] = second compound 3 µM, first compound 0.0316 µM
# [12] = second compound 3 µM, first compound 0.1 µM
# 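Further: compound exposure lasted 7 days.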
# 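Wherever viability, T/C is given: 100% = DMSO vehicle control wells.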
smiles,measurement,setting,value
Cn1ncnc1[C@H]1c2n[nH]c(=O)c3cc(F)cc(c23)N[C@@H]1c1ccc(F)cc1 + CCN1C(C(=O)NC23CCC(C(=O)O)(CC2)CC3)C(c2cccc(Cl)c2F)C2(C(=O)Nc3cc(Cl)ccc32)C12CCCCC2,IC50,second compound 0.00949 µM,> 0.1 µM
same,IC50,second compound 0.03 µM,> 0.1 µM
same,IC50,second compound 0.0949 µM,> 0.1 µM
same,IC50,second compound 0.3 µM,> 0.1 µM
same,IC50,second compound 0.949 µM,> 0.1 µM
same,IC50,second compound 3 µM,> 0.1 µM
same,"viability, T/C","second compound 0.00949 µM, first compound 0.000316 µM",102%
same,"viability, T/C","second compound 0.00949 µM, first compound 0.001 µM",96.2%
same,"viability, T/C","second compound 0.00949 µM, first compound 0.00316 µM",106%
same,"viability, T/C","second compound 0.00949 µM, first compound 0.01 µM",97.2%
same,"viability, T/C",[1],100%
same,"viability, T/C",[2],88.1%
same,"viability, T/C","second compound 0.03 µM, first compound 0.000316 µM",98.7%
same,"viability, T/C","second compound 0.03 µM, first compound 0.001 µM",98.6%
same,"viability, T/C","second compound 0.03 µM, first compound 0.00316 µM",95.7%
same,"viability, T/C","second compound 0.03 µM, first compound 0.01 µM",98.2%
same,"viability, T/C",[3],96.5%
same,"viability, T/C",[4],90.1%
same,"viability, T/C","second compound 0.0949 µM, first compound 0.000316 µM",101%
same,"viability, T/C","second compound 0.0949 µM, first compound 0.001 µM",89.1%
same,"viability, T/C","second compound 0.0949 µM, first compound 0.00316 µM",89.8%
same,"viability, T/C","second compound 0.0949 µM, first compound 0.01 µM",89.6%
same,"viability, T/C",[5],92.8%
same,"viability, T/C",[6],79.1%
same,"viability, T/C","second compound 0.3 µM, first compound 0.000316 µM",85.4%
same,"viability, T/C","second compound 0.3 µM, first compound 0.001 µM",85.3%
same,"viability, T/C","second compound 0.3 µM, first compound 0.00316 µM",85.7%
same,"viability, T/C","second compound 0.3 µM, first compound 0.01 µM",85.6%
same,"viability, T/C",[7],81.5%
same,"viability, T/C",[8],79%
same,"viability, T/C","second compound 0.949 µM, first compound 0.000316 µM",75.4%
same,"viability, T/C","second compound 0.949 µM, first compound 0.001 µM",76.1%
same,"viability, T/C","second compound 0.949 µM, first compound 0.00316 µM",72.5%
same,"viability, T/C","second compound 0.949 µM, first compound 0.01 µM",77.9%
same,"viability, T/C",[9],75.4%
same,"viability, T/C",[10],76.3%
same,"viability, T/C","second compound 3 µM, first compound 0.000316 µM",71.1%
same,"viability, T/C","second compound 3 µM, first compound 0.001 µM",70.2%
same,"viability, T/C","second compound 3 µM, first compound 0.00316 µM",75.3%
same,"viability, T/C","second compound 3 µM, first compound 0.01 µM",67.4%
same,"viability, T/C",[11],73.2%
same,"viability, T/C",[12],74%
O=C(c1cc(Cc2n[nH]c(=O)c3ccccc23)ccc1F)N1CCN(C(=O)C2CC2)CC1 + CCN1C(C(=O)NC23CCC(C(=O)O)(CC2)CC3)C(c2cccc(Cl)c2F)C2(C(=O)Nc3cc(Cl)ccc32)C12CCCCC2,IC50,second compound 0.00949 µM,> 10 µM
same,IC50,second compound 0.03 µM,> 10 µM
same,IC50,second compound 0.0949 µM,> 10 µM
same,IC50,second compound 0.3 µM,> 10 µM
same,IC50,second compound 0.949 µM,> 10 µM
same,IC50,second compound 3 µM,> 10 µM
same,"viability, T/C",[1],99.4%
same,"viability, T/C",[2],102%
same,"viability, T/C","second compound 0.00949 µM, first compound 0.316 µM",95.9%
same,"viability, T/C","second compound 0.00949 µM, first compound 1 µM",104%
same,"viability, T/C","second compound 0.00949 µM, first compound 3.16 µM",106%
same,"viability, T/C","second compound 0.00949 µM, first compound 10 µM",91.5%
same,"viability, T/C",[3],103%
same,"viability, T/C",[4],88.8%
same,"viability, T/C","second compound 0.03 µM, first compound 0.316 µM",94.6%
same,"viability, T/C","second compound 0.03 µM, first compound 1 µM",97.4%
same,"viability, T/C","second compound 0.03 µM, first compound 3.16 µM",96.9%
same,"viability, T/C","second compound 0.03 µM, first compound 10 µM",89.9%
same,"viability, T/C",[5],98.5%
same,"viability, T/C",[6],85.4%
same,"viability, T/C","second compound 0.0949 µM, first compound 0.316 µM",92.7%
same,"viability, T/C","second compound 0.0949 µM, first compound 1 µM",89.8%
same,"viability, T/C","second compound 0.0949 µM, first compound 3.16 µM",89.1%
same,"viability, T/C","second compound 0.0949 µM, first compound 10 µM",81.4%
same,"viability, T/C",[7],87.9%
same,"viability, T/C",[8],80.1%
same,"viability, T/C","second compound 0.3 µM, first compound 0.316 µM",83.4%
same,"viability, T/C","second compound 0.3 µM, first compound 1 µM",83.2%
same,"viability, T/C","second compound 0.3 µM, first compound 3.16 µM",76.4%
same,"viability, T/C","second compound 0.3 µM, first compound 10 µM",83.7%
same,"viability, T/C",[9],76.7%
same,"viability, T/C",[10],75.2%
same,"viability, T/C","second compound 0.949 µM, first compound 0.316 µM",74.3%
same,"viability, T/C","second compound 0.949 µM, first compound 1 µM",75.8%
same,"viability, T/C","second compound 0.949 µM, first compound 3.16 µM",75.5%
same,"viability, T/C","second compound 0.949 µM, first compound 10 µM",72%
same,"viability, T/C",[11],72.3%
same,"viability, T/C",[12],69.1%
same,"viability, T/C","second compound 3 µM, first compound 0.316 µM",70.9%
same,"viability, T/C","second compound 3 µM, first compound 1 µM",71.7%
same,"viability, T/C","second compound 3 µM, first compound 3.16 µM",70.6%
same,"viability, T/C","second compound 3 µM, first compound 10 µM",74.7%
